# Earlier results in patent publication US5118493A, “Composition having reduced nephrotoxocity comprising a fatty acid containing component and cyclosporine” (Brigham and Women's Hospital, priority 1991, dated 1992).
# Tested on: rats treated with CSA
structure (smiles),measurement,value
"Cc1c(Cn2ccnc2)c2ccccc2n1CCC(=O)O [UK-38,485]",glomerular filtration rate (GFR),improved
same,urinary TxB2 levels,comparable to control levels
